Assay results from US20240293558A1, “KRAS INHIBITOR CONJUGATES” (Erasca, Inc., priority 2021, published 2024).

What was measured:
KRAS (WT) = biological target: T1, KRAS (WT) (Homo sapiens, UniProt P01116); assay: In-vitro RAS-RAF binding assay (RRB), HTRF/FRET; assay type: biochemical; conditions: Table 2, average of multiple runs of each compound; read-out: Inhibition of RAS-RAF Binding (in-vitro) KRAS (WT) IC50
T1 construct: Biotinylated KRAS protein amino acids 1-169 (produced at Erasca); made in house
Protocol: (§1) Biotinylated KRAS protein amino acids 1-169 (produced at […]) is labeled with streptavidin-terbium (lanthanide cryptate donor fluorophore) in assay buffer (50 mM HEPES, pH 7.5, 100 mM NaCl, 1 mM MgCl2, 1 mM DTT) at a final concentration of 30 nM. In a separate reaction mixture, 30 nM cRAF (RBD) (Abcam, Cambridge MA) is labeled with anti-GST d2 (acceptor fluorophore). Labeling reactions are incubated for 1 hour at room temperature. […] Following the compound incubation, SOS1 catalytic domain (produced at […]) and GTPgS are added to the reaction to initiate nucleotide exchange (60 minutes exchange reaction). Once in the GTP state KRAS will bind to cRAF. No binding will occur if KRAS remains in the GDP state. Compounds may block nucleotide exchange or may create a steric obstruction to cRAF-KRAS interaction by binding to the RAS effector site. […] A portion of this mixture is transferred to a white 384-well plate (20 uL per well in duplicate) and read on an HTRF compatible plate reader (ClarioSTAR). Fluorescent resonance energy transfer (FRET) is measured at equilibrium. FRET signal will be high if KRAS-cRAF binding occurs. FRET signal will be low if KRAS-cRAF binding is inhibited by the test compound. Table 2 represents the average of multiple runs of each compound.

KRAS G12D = KRAS G12D (Homo sapiens, UniProt P01116, G12D); assay: In-vitro RAS-RAF binding assay (RRB), HTRF/FRET; assay type: biochemical; set-up: Biotinylated KRAS protein amino acids 1-169 (produced at Erasca); made in house; conditions: Table 2, average of multiple runs of each compound; read-out: Inhibition of RAS-RAF Binding (in-vitro) KRAS (G12D) IC50
Protocol: as §1

Sequence of KRAS G12D (P01116 1-169 isoform P01116-2 G12D): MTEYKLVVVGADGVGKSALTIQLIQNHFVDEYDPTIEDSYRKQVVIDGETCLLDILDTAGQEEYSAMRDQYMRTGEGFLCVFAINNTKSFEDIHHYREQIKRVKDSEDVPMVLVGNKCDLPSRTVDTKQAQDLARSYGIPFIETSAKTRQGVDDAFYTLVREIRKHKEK
T1 sequence (P01116 1-169 isoform P01116-2): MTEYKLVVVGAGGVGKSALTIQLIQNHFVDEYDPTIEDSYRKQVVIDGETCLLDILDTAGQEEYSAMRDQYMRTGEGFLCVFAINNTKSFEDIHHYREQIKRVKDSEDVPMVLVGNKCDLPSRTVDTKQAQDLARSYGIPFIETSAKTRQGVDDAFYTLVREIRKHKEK

Row | IC50 (KRAS (WT)) [µM] | IC50 (KRAS G12D) [µM] | Compound
1 | 0.0658 | 0.0152 | Cc1ncsc1-c1ccc([C@H](C)NC(=O)[C@@H]2C[C@@H](O)CN2C(=O)[C@@H](NC(=O)CCCCN2CCC[C@H]2COc2nc(N3CC4CCC(C3)N4)c3cc(Cl)c(-c4ccc(F)c5sc(N)c(C#N)c45)c(F)c3n2)C(C)(C)C)cc1 [Example 89, (2S,4R)-1-((2S)-2-(5-((2S)-2-(((7-(2-amino-3-cyano-7-fluorobenzo[b]thiophen-4-yl)-4-(3,8-diazabicyclo[3.2.1]octan-3-yl)-6-chloro-8-fluoroquinazolin-2-yl)oxy)methyl)pyrrolidin-1-yl)pentanamido)-3,3-dimethylbutanoyl)-4-hydroxy-N-((S)-1-(4-(4-methylthiazol-5-yl)phenyl)ethyl)pyrrolidine-2-carboxamide]
2 | 1.41 | 0.00962 | C#Cc1c(F)ccc2cc(O)cc(-c3ncc4c(N5CC6CCC(C5)N6)nc(OCCN5CCC(C)(COc6cc([C@H](C(=O)N7C[C@H](O)C[C@H]7C(=O)N[C@@H](C)c7ccc(-c8c(F)cc(F)cc8F)cc7)C(C)C)on6)CC5)nc4c3F)c12 [Example 64, (2S,4R)-1-((2R)-2-(3-((1-(2-((4-(3,8-diazabicyclo[3.2.1]octan-3-yl)-7-(8-ethynyl-7-fluoro-3-hydroxynaphthalen-1-yl)-8-fluoropyrido[4,3-d]pyrimidin-2-yl)oxy)ethyl)-4-methylpiperidin-4-yl)methoxy)isoxazol-5-yl)-3-methylbutanoyl)-4-hydroxy-N-((S)-1-(2′,4′,6′-trifluoro-[1,1′-biphenyl]-4-yl)ethyl)pyrrolidine-2-carboxamide]
3 | 1.07 | 0.00985 | C#Cc1c(F)ccc2cc(O)cc(-c3ncc4c(N5CC6CCC(C5)N6)nc(OCCN5CCC6(CC5)CN(c5cc([C@H](C(=O)N7C[C@H](O)C[C@H]7C(=O)N[C@@H](C)c7ccc(-c8c(F)cc(F)cc8F)cc7)C(C)C)on5)C6)nc4c3F)c12 [Example 36, (2S,4R)-1-((2R)-2-(3-(7-(2-((4-(3,8-diazabicyclo[3.2.1]octan-3-yl)-7-(8-ethynyl-7-fluoro-3-hydroxynaphthalen-1-yl)-8-fluoropyrido[4,3-d]pyrimidin-2-yl)oxy)ethyl)-2,7-diazaspiro[3.5]nonan-2-yl)isoxazol-5-yl)-3-methylbutanoyl)-4-hydroxy-N—((S)-1-(2′,4′,6′-trifluoro-[1,1′-biphenyl]-4-yl)ethyl)pyrrolidine-2-carboxamide]
4 | 0.0303 | 0.00823 | C#Cc1c(F)ccc2cc(O)cc(-c3ncc4c(N5CC6CCC(C5)N6)nc(OC[C@@H]5CCCN5CCCOCCC(=O)N[C@H](C(=O)N5C[C@H](O)C[C@H]5C(=O)N[C@@H](CO)c5ccc(-c6c(F)cccc6F)cc5)C(C)(C)C)nc4c3F)c12 [Example 32, (2S,4R)-1-((2S)-2-(3-(3-((2S)-2-(((4-(3,8-diazabicyclo[3.2.1]octan-3-yl)-7-(8-ethynyl-7-fluoro-3-hydroxynaphthalen-1-yl)-8-fluoropyrido[4,3-d]pyrimidin-2-yl)oxy)methyl)pyrrolidin-1-yl)propoxy)propanamido)-3,3-dimethylbutanoyl)-N—((R)-1-(2′,6′-difluoro-[1,1′-biphenyl]-4-yl)-2-hydroxyethyl)-4-hydroxypyrrolidine-2-carboxamide]
5 | 8.33 | 0.0106 | C#Cc1c(F)ccc2cc(O)cc(-c3ncc4c(N5CC6CCC(C5)N6)nc(OCCN5CCC(COc6cc([C@H](C(=O)N7C[C@H](O)C[C@H]7C(=O)N[C@@H](C)c7ccc(-c8c(F)cc(F)cc8F)cc7)C(C)C)on6)CC5)nc4c3F)c12 [Example 63, (2S,4R)-1-((2R)-2-(3-((1-(2-((4-(3,8-diazabicyclo[3.2.1]octan-3-yl)-7-(8-ethynyl-7-fluoro-3-hydroxynaphthalen-1-yl)-8-fluoropyrido[4,3-d]pyrimidin-2-yl)oxy)ethyl)piperidin-4-yl)methoxy)isoxazol-5-yl)-3-methylbutanoyl)-4-hydroxy-N-((S)-1-(2′,4′,6′-trifluoro-[1,1′-biphenyl]-4-yl)ethyl)pyrrolidine-2-carboxamide]
6 | 0.0222 | 0.00767 | C#Cc1c(F)ccc2cc(O)cc(-c3ncc4c(N5CC6CCC(C5)N6)nc(OC[C@@H]5CCCN5CCCOCCC(=O)N[C@H](C(=O)N5C[C@H](O)C[C@H]5C(=O)N[C@@H](C)c5ccc(-c6c(C)ccnc6C)cc5)C(C)(C)C)nc4c3F)c12 [Example 47, (2S,4R)-1-((2S)-2-(3-(3-((2S)-2-(((4-(3,8-diazabicyclo[3.2.1]octan-3-yl)-7-(8-ethynyl-7-fluoro-3-hydroxynaphthalen-1-yl)-8-fluoropyrido[4,3-d]pyrimidin-2-yl)oxy)methyl)pyrrolidin-1-yl)propoxy)propanamido)-3,3-dimethylbutanoyl)-N-((S)-1-(4-(2,4-dimethylpyridin-3-yl)phenyl)ethyl)-4-hydroxypyrrolidine-2-carboxamide]
7 | 0.0637 | 0.0139 | Cc1ncsc1-c1ccc([C@H](C)NC(=O)[C@@H]2C[C@@H](O)CN2C(=O)[C@@H](NC(=O)CCOCCCN2CCC[C@H]2COc2nc(N3CC4CCC(C3)N4)c3cc(C(F)(F)F)c(-c4ccc(F)c5sc(N)c(C#N)c45)cc3n2)C(C)(C)C)cc1 [Example 80, (2S,4R)-1-((2S)-2-(3-(3-((2S)-2-(((7-(2-amino-3-cyano-7-fluorobenzo[b]thiophen-4-yl)-4-(3,8-diazabicyclo[3.2.1]octan-3-yl)-6-(trifluoromethyl)quinazolin-2-yl)oxy)methyl)pyrrolidin-1-yl)propoxy)propanamido)-3,3-dimethylbutanoyl)-4-hydroxy-N-((S)-1-(4-(4-methylthiazol-5-yl)phenyl)ethyl)pyrrolidine-2-carboxamide]
8 | 0.0918 | 0.012 | Cc1ccccc1-c1ccc([C@H](C)NC(=O)[C@@H]2C[C@@H](O)CN2C(=O)[C@@H](NC(=O)CCOCCCN2CCC[C@H]2COc2nc(N3CC4CCC(C3)N4)c3cc(Cl)c(-c4ccc(F)c5sc(N)c(C#N)c45)c(F)c3n2)C(C)(C)C)cc1 [Example 26, (2S,4R)-1-((2S)-2-(3-(3-((2S)-2-(((7-(2-amino-3-cyano-7-fluorobenzo[b]thiophen-4-yl)-4-(3,8-diazabicyclo[3.2.1]octan-3-yl)-6-chloro-8-fluoroquinazolin-2-yl)oxy)methyl)pyrrolidin-1-yl)propoxy)propanamido)-3,3-dimethylbutanoyl)-4-hydroxy-N—((S)-1-(2′-methyl-[1,1′-biphenyl]-4-yl)ethyl)pyrrolidine-2-carboxamide]
9 | 0.043 | 0.013 | Cc1ncsc1-c1ccc([C@H](C)NC(=O)[C@@H]2C[C@@H](O)CN2C(=O)[C@@H](NC(=O)CCCCN2CCC[C@H]2COc2nc(N3CC4CCC(C3)N4)c3cc(C(F)(F)F)c(-c4ccc(F)c5sc(N)c(C#N)c45)c(F)c3n2)C(C)(C)C)cc1 [Example 90, (2S,4R)-1-((2S)-2-(5-((2S)-2-(((7-(2-amino-3-cyano-7-fluorobenzo[b]thiophen-4-yl)-4-(3,8-diazabicyclo[3.2.1]octan-3-yl)-8-fluoro-6-(trifluoromethyl)quinazolin-2-yl)oxy)methyl)pyrrolidin-1-yl)pentanamido)-3,3-dimethylbutanoyl)-4-hydroxy-N-((S)-1-(4-(4-methylthiazol-5-yl)phenyl)ethyl)pyrrolidine-2-carboxamide]
10 | > 10 | 0.0111 | C#Cc1c(F)ccc2cc(O)cc(-c3ncc4c(N5CC6CCC(C5)N6)nc(OCCN5CCC(F)(COc6cc([C@H](C(=O)N7C[C@H](O)C[C@H]7C(=O)N[C@@H](C)c7ccc(-c8c(F)cc(F)cc8F)cc7)C(C)C)on6)CC5)nc4c3F)c12 [Example 65, (2S,4R)-1-((2R)-2-(3-((1-(2-((4-(3,8-diazabicyclo[3.2.1]octan-3-yl)-7-(8-ethynyl-7-fluoro-3-hydroxynaphthalen-1-yl)-8-fluoropyrido[4,3-d]pyrimidin-2-yl)oxy)ethyl)-4-fluoropiperidin-4-yl)methoxy)isoxazol-5-yl)-3-methylbutanoyl)-4-hydroxy-N-((S)-1-(2′,4′,6′-trifluoro-[1,1′-biphenyl]-4-yl)ethyl)pyrrolidine-2-carboxamide]
11 | 0.0449 | 0.00897 | C#Cc1c(F)ccc2cc(O)cc(-c3ncc4c(N5CC6CCC(C5)N6)nc(OC[C@@H]5CCCN5CCCOCCC(=O)N[C@H](C(=O)N5C[C@H](O)C[C@H]5C(=O)N[C@@H](C)c5ccc(-c6c(Cl)cccc6Cl)cc5)C(C)(C)C)nc4c3F)c12 [Example 45]
